Values of other authors in patent US20040266755A1, “Prodrugs of 1-(1-hydroxy-5-isoquinolinesulfonyl) homopiperazine” (Schering Aktiengesellschaft, priority 2003, published 2004).

System: Rho-kinase
Details: compared with fasudil; Shimokawa et al. (1999) Cardiovas. Res. 43:1138-1141

In the case of `O=S(=O)(c1cccc2c(O)nccc12)N1CCCNCC1` [Hydroxyfasudil, 1-(1-hydroxy-5-isoquinolinesulfonyl) homopiperazine], the “specificity of inhibitory effect on Rho-kinase” value is listed as “more specific inhibitory effect on Rho-kinase than fasudil”.
